This is an account of results in US20180296487A1, “SUSTAINED RELEASE INJECTABLE NEUROSTEROID FORMULATIONS” (MARINUS PHARMACEUTICALS, INC., priority 2017, published 2018).

The conditions of data set [1]: cited from earlier work.

Like-named read-outs stand apart in the source and are kept apart here.

For the molecule `CC(=O)[C@H]1CC[C@H]2[C@@H]3CC[C@H]4C[C@H](O)CC[C@]4(C)[C@H]3CC[C@]12C` [Allopregnanolone, 3α,5α-tetrahydroprogesterone], the half-life entry in data set [1] (human plasma) was “about 45 minutes”.
With `CC(=O)[C@H]1CC[C@H]2[C@@H]3CC[C@H]4C[C@](C)(O)CC[C@]4(C)[C@H]3CC[C@]12C` [Ganaxolone, 3α-hydroxy, 3β-methyl-5α-pregnan-20-one], the half-life entry in data set [1] (human plasma following oral administration) is reported as “approximately 20 hours”. Further, the Tmax entry in data set [1] (therapeutic blood levels are reached quickly) is “short”. Moreover, in “Solubility in water”, the solubility in water is < 1 µg/mL.
